Reference: PMC11048155, “Antiviral Drug Candidate Repositioning for Streptococcus suis Infection in Non-Tumorigenic Cell Models” (Biomedicines, 2024)
Converted amounts (≈) assume the structure as drawn. “Also recorded” adds a separate entry of the source.

Assays:
[1] = system: Staphylococcus (S.) aureus (ATCC 10832); assay: MIC measurement (broth microdilution); type: cell-based; settings: source ATCC, 18–24 h at 37 °C, read-out: MIC
[2] = system: Enterococcus (E.) faecalis (clinical isolate); assay: MIC measurement (broth microdilution); type: cell-based; settings: Enterococcus; E. fecalis, source 442; 18–24 h at 37 °C; read-out: MIC
CYP1A2 = target: T1, CYP1A2 (Homo sapiens, UniProt P05177); assay: CYP enzyme fluorometric activity measurement, human hepatic microsomes; settings: inhibitor 50 µM, human microsomes, 15 min; p > 0.05
T1 sequence (P05177 1-516): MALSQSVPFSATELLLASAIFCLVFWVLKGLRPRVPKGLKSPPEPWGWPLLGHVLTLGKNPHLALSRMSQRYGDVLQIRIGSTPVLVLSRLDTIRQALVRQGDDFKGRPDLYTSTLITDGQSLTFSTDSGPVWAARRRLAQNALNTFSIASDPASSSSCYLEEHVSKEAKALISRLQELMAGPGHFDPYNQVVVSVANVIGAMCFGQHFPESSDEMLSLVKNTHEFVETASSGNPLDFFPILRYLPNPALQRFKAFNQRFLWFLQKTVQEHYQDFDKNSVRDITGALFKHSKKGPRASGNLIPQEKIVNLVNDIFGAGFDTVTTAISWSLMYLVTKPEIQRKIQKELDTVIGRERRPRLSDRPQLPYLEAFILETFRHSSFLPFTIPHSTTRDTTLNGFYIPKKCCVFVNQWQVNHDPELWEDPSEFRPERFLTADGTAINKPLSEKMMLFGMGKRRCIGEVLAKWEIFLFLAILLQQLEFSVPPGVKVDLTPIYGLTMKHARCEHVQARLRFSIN
Protocol: (§1) The Biovision CYP assays (BioVision, Inc., Kampenhout, Belgium) employ non-fluorescent CYP2D6, 2C9, 2C19, 1A2, or 3A4 substrates able to undergo transformation into highly fluorescent detectable metabolites. […] Human hepatic microsomal supernatants were prepared (Gibco, Biocentre, Szeged, Hungary protein concentration: 20 mg/mL) separately by mixing 30 µL with 2425 µL assay buffer and with 50 µL nicotinamide adenine dinucleotide phosphate (NADPH) generating system (100×). […] Control measurements were performed in the absence of the inhibitors.
(§2) In background controls, only assay buffer excluding microsomes and test compounds was used in a volume of 70 µL. Subsequently, after incubation at 37 °C for 15 min, 30 µL of the suitable CYP substrate/NADP+ mixture was incorporated into each well, resulting in a final reaction volume of 100 µL/well. The obtained microsomal protein content was assessed using the bicinchoninic acid protein assay kit (Pierce BCA kit, Thermo Fisher Scientific, Waltham, MA, USA). In each assay, the microsomal protein concentration was calibrated to 100 µg/well. The fluorescence intensities were measured with a fluorometer (Victor X2 2030, Perkin Elmer, Waltham, MA, USA) using λex/em = 406/468 nm for CYP1A2 and for CYP2C19, λex/em = 415/502 nm for CYP2C9, λex/em = 390/468 nm for CYP2D6, and λex/em = 535/587 nm for CYP3A4 assays.

CYP3A4 = CYP3A4 (Homo sapiens, UniProt P08684); assay: as above; settings: human microsomal preparations, 15 min, 37 °C, p < 0.0001
Chain of CYP3A4 (P08684 whole entry): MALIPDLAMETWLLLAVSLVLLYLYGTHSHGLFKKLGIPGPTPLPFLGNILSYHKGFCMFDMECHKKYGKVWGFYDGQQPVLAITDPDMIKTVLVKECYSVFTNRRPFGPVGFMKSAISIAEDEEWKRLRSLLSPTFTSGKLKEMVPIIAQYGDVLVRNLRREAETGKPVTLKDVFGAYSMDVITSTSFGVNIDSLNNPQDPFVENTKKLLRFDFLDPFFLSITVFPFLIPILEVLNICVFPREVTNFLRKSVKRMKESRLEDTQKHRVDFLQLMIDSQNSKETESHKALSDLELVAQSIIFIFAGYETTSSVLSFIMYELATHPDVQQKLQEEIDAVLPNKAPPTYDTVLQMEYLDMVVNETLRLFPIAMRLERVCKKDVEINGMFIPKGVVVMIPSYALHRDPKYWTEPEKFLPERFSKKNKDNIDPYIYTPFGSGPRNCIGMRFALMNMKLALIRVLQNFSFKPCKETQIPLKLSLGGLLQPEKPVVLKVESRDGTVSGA
Protocol: as §1, §2

IPEC-J2 cells = assay: Cell viability, Neutral red assay; type: cell-based, porcine; settings: IPEC-J2, S. suis 10^4 CFU/mL in combination with inhibitor 50 µM, 24 h
Source text: The IPEC-J2 cell line is unique as it is non-transformed and non-tumorigenic. IPEC-J2 cells are derived from intestinal enterocytes extracted from the jejunum of neonatal unsuckled piglets. IPEC-J2 cells were gifted by Dr. Jody Gookin (Department of Clinical Sciences, College of Veterinary Medicine, North Carolina State University, Raleigh, NC, USA). […] The cells had undergone passage around 50 times. […] This experiment included plain DMEM/F12 medium as a control. At the end of the final treatments (24 h), the ratio of viable cells was measured by absorbance at 540 nm wavelength with a SpectraMax iD3 microplate reader.

[3] = system: primary porcine hepatocytes; assay: Cell viability, Neutral red assay; type: cell-based; settings: S. suis 10^4 CFU/mL in combination with inhibitor 50 µM, 24 h
Protocol: Porcine cryopreserved primary hepatocytes were obtained from Primacyt Cell Culture Company (Schwerin, Germany). Lonza Group Ltd. (Biocenter Ltd., Szeged, Hungary) supplied the thawing, plating, and maintenance media. The cytotoxic effects of inhibitors MI-432, MI-471, and MI-476 were tested on the viability of primary hepatocytes using the NR method. The hepatocytes were cultivated on a 96-well plate for 24 h, followed by incubation with the inhibitors at 0, 50, and 100 µM for an additional 24 h. Only cell maintenance medium was used to incubate the control cells. The plate underwent incubation together with NR dye for 2 h. Hepatocyte viability was recorded at 540 nm with a SpectraMax iD3 microplate reader.

| Structure (SMILES) | MIC [1] [µM] | MIC [2] [µM] | CYP1A2 activity (CYP1A2) | CYP3A4 isoenzyme activity (CYP3A4; inhibitor 10 µM) | CYP3A4 isoenzyme activity (CYP3A4; inhibitor 25 µM) | CYP3A4 isoenzyme activity (CYP3A4; inhibitor 50 µM) | cell viability (IPEC-J2 cells) | cell viability [3] |
| --- | --- | --- | --- | --- | --- | --- | --- | --- |
| N=C(N)c1cccc(C[C@H](NS(=O)(=O)c2cccc(-c3ccc(Cl)cc3Cl)c2)C(=O)N2CCC(CN)CC2)c1 [MI-476] | 100 (≈ 58.9 µg/mL) | > 800 | No significant inhibitory effects | mitigated | mitigated | mitigated | did not show any negative effect on cell viability; also recorded: effectively suppressed | did not deteriorate cell viability; also recorded: effectively suppressed |
| N=C(N)c1cccc(C[C@H](NS(=O)(=O)c2cccc(-c3ccc(Cl)cc3Cl)c2)C(=O)N2CCC(N)CC2)c1 [MI-471] | 100 (≈ 57.5 µg/mL) | > 800 | No significant inhibitory effects | mitigated | mitigated | mitigated | did not show any negative effect on cell viability; also recorded: effectively suppressed |  |
